From publication PMC7913927, “Leishmanicidal Activity of Betulin Derivatives in Leishmania amazonensis; Effect on Plasma and Mitochondrial Membrane Potential, and Macrophage Nitric Oxide and Superoxide Production” (Microorganisms, 2021)
Values joined by “and” are separate entries in the source; they are usually repeats but may differ in a detail not shown here. Identical values can stand only once. Like-named read-outs stand apart in the source and are kept apart here.

Legend:
[1] = test system: LTB0016 intracellular amastigotes in J774.1 macrophages; assay: Macrophage-amastigote model, reference strain; type: cell-based, Leishmania amazonensis; details: for Growth (%) Exp1 Infección / Growth (%) Exp1 A/MØ / Growth (%) Exp1 A/100MØ / Growth (%) Exp1 %Control / Growth (%) Exp2 Infección / Growth (%) Exp2 A/MØ / Growth (%) Exp2 A/100MØ / Growth (%) Exp2 %Control / Growth (%) Exp3 Infección / Growth (%) Exp3 A/MØ / Growth (%) Exp3 A/100MØ / Growth (%) Exp3 %Control / Average A/100MØ: 72 h; for Growth (%) Exp1 Infección / Growth (%) Exp2 Infección / Growth (%) Exp3 Infección: % infected macrophages; for Growth (%) Exp1 A/MØ / Growth (%) Exp2 A/MØ / Growth (%) Exp3 A/MØ: amastigotes per infected macrophage; for Growth (%) Exp1 A/100MØ / Growth (%) Exp2 A/100MØ / Growth (%) Exp3 A/100MØ: infection index; for Growth (%) Exp1 %Control / Growth (%) Exp2 %Control / Growth (%) Exp3 %Control: infection index vs DMSO; for Average A/100MØ: average of Exp1-3
Description: We used a previously described methodology, with some modifications. Macrophage monolayers, grown in RMPIc medium, for 3 days, were detached from the bottom of the culture chamber, by physical treatment (low temperature and light strokes). Obtained macrophages were seeded in flat-bottom 96-well culture plates, at a density of 2 × 10^5 cells mL^−1 (40,000 macrophages/well), in a final volume of 200 µL. Plates were incubated for 2 h, and the supernatant was discarded to remove non-adhered macrophages. Medium was replaced with stationary-phase promastigotes suspended in 200 µL of RPMIc (2 × 10^6 parasites mL^−1, 400,000 parasites/well), at a macrophage: parasite ratio 1:10 [40]. The plates were incubated for 4 h. Afterwards the medium was replaced with fresh RPMIc and increasing concentrations of compounds or drugs tested were applied, in volumes of 2 µL, according to the different treatment groups. Plates were kept for 72 h, at 37 °C and 5% CO2. The medium was discarded and the wells were washed twice with PBS. Next, a Giemsa staining was performed in situ. It consisted of adding 200 µL of methanol/well, incubating for 5 min, discarding the fixative, and letting it dry at room temperature. Later, the Giemsa solution (10% in PBS w/v, 200 µL/well) was added, incubated for 10 min, and washed with PBS, allowing it to dry. Finally, the bottom of the plates was detached by percussion and the circular bottoms (wells) were fixed to slides with Permount synthetic resin, for later evaluation (Alcazar W., manuscript in preparation). Cell counting was performed with a 100× immersion objective. A minimum of 200 random macrophages were examined. The percentage of infected macrophages (% infection) and the average number of amastigotes present in infected macrophages (amastigotes) were determined. […] The infection rate represents the number of intracellular amastigotes per 100 macrophages evaluated. Additionally, the GI50 for the decrease in the infection rate was calculated. At least three independent experiments were performed. The effect of amphotericin-B (AmB) [Sigma-Aldrich, (St. Louis, MO, USA)] was included as positive control of the assay.

[2] = test system: J774.1 macrophages; assay: Cytotoxicity (Alamar Blue) in macrophages; type: cell-based, murine; details: 72 h
Description: In flat-bottom 96-well culture plates, J774.1 macrophages were seeded at a cell density of 5 × 10^4 mL^−1 (10,000 macrophages/well) in 200 µL of RPMIc. After 24 h at 37 °C, 5% CO2, medium was replaced by 180 µL of RPMIc, without phenol red, and increasing concentrations of test compounds in 2-µL volumes. […] At least two independent experiments were performed in duplicate. Based on the inhibition of cell growth caused by the tested compounds, the percentage of growth inhibition compared to untreated cells was calculated. […] Selectivity indices (SI) were calculated, dividing the macrophage CC50 by the parasites GI50 (SI = CC50/GI50).

[3] = test system: L. (V.) braziliensis promastigotes, reference strain MHOM/BR/LTB300; details: reference strain MHOM/BR/LTB300; cited from earlier work
[4] = test system: L. (L.) donovani axenic amastigotes; details: cited from earlier work
[5] = test system: L. (L.) braziliensis MHOM/BR/LTB300; set-up: method as in PMID 25240731; details: cited from earlier work

C=C(C)C1CCC2(C=NO)CCC3(C)C(CCC4C5(C)CCC(=NO)C(C)(C)C5CCC43C)C12 (stereo not drawn) [Compound 18]
SI (CC50/GI50) LTB0016 ([1]; J774.1 CC50 / intracellular amastigote GI50, Table 2): 240.45 | Growth (%) Exp1 Infección ([1]; LTB0016, 0.10 µM): 52.43% | Growth (%) Exp1 A/MØ ([1]; LTB0016, 0.10 µM): 3.54 | Growth (%) Exp1 A/100MØ ([1]; LTB0016, 0.10 µM): 185.69 | Growth (%) Exp1 %Control ([1]; LTB0016, 0.10 µM): 70.78% | Growth (%) Exp2 Infección ([1]; LTB0016, 0.10 µM): 57.50% | Growth (%) Exp2 A/MØ ([1]; LTB0016, 0.10 µM): 3.36 | Growth (%) Exp2 A/100MØ ([1]; LTB0016, 0.10 µM): 193.20 | Growth (%) Exp2 %Control ([1]; LTB0016, 0.10 µM): 90.86% | Growth (%) Exp3 Infección ([1]; LTB0016, 0.10 µM): 41.73% | Growth (%) Exp3 A/MØ ([1]; LTB0016, 0.10 µM): 2.66 | Growth (%) Exp3 A/100MØ ([1]; LTB0016, 0.10 µM): 111.00 | Growth (%) Exp3 %Control ([1]; LTB0016, 0.10 µM): 62.52% | Average A/100MØ ([1]; LTB0016, 0.10 µM): 163.30 | Growth (%) Exp1 Infección ([1]; LTB0016, 0.50 µM): 36.24% | Growth (%) Exp1 A/MØ ([1]; LTB0016, 0.50 µM): 3.35 | Growth (%) Exp1 A/100MØ ([1]; LTB0016, 0.50 µM): 121.51 | Growth (%) Exp1 %Control ([1]; LTB0016, 0.50 µM): 46.32% | Growth (%) Exp2 Infección ([1]; LTB0016, 0.50 µM): 32.38% | Growth (%) Exp2 A/MØ ([1]; LTB0016, 0.50 µM): 2.08 | Growth (%) Exp2 A/100MØ ([1]; LTB0016, 0.50 µM): 67.35 | Growth (%) Exp2 %Control ([1]; LTB0016, 0.50 µM): 31.68% | Growth (%) Exp3 Infección ([1]; LTB0016, 0.50 µM): 25.00% | Growth (%) Exp3 A/MØ ([1]; LTB0016, 0.50 µM): 2.29 | Growth (%) Exp3 A/100MØ ([1]; LTB0016, 0.50 µM): 57.25 | Growth (%) Exp3 %Control ([1]; LTB0016, 0.50 µM): 32.25% | Average A/100MØ ([1]; LTB0016, 0.50 µM): 82.04 | Growth (%) Exp1 Infección ([1]; LTB0016, 1.00 µM): 10.68% | Growth (%) Exp1 A/MØ ([1]; LTB0016, 1.00 µM): 3.15 | Growth (%) Exp1 A/100MØ ([1]; LTB0016, 1.00 µM): 33.68 | Growth (%) Exp1 %Control ([1]; LTB0016, 1.00 µM): 12.84% | Growth (%) Exp2 Infección ([1]; LTB0016, 1.00 µM): 24.45% | Growth (%) Exp2 A/MØ ([1]; LTB0016, 1.00 µM): 1.29 | Growth (%) Exp2 A/100MØ ([1]; LTB0016, 1.00 µM): 31.54 | Growth (%) Exp2 %Control ([1]; LTB0016, 1.00 µM): 14.83% | Growth (%) Exp3 Infección ([1]; LTB0016, 1.00 µM): 17.20% | Growth (%) Exp3 A/MØ ([1]; LTB0016, 1.00 µM): 3.00 | Growth (%) Exp3 A/100MØ ([1]; LTB0016, 1.00 µM): 51.60 | Growth (%) Exp3 %Control ([1]; LTB0016, 1.00 µM): 29.06% | Average A/100MØ ([1]; LTB0016, 1.00 µM): 38.94 | Growth (%) Exp1 Infección ([1]; LTB0016, 5.00 µM): 9.37% | Growth (%) Exp1 A/MØ ([1]; LTB0016, 5.00 µM): 1.83 | Growth (%) Exp1 A/100MØ ([1]; LTB0016, 5.00 µM): 17.18 | Growth (%) Exp1 %Control ([1]; LTB0016, 5.00 µM): 6.55% | Growth (%) Exp2 Infección ([1]; LTB0016, 5.00 µM): 17.07% | Growth (%) Exp2 A/MØ ([1]; LTB0016, 5.00 µM): 1.50 | Growth (%) Exp2 A/100MØ ([1]; LTB0016, 5.00 µM): 25.61 | Growth (%) Exp2 %Control ([1]; LTB0016, 5.00 µM): 12.04% | Growth (%) Exp3 Infección ([1]; LTB0016, 5.00 µM): 10.71% | Growth (%) Exp3 A/MØ ([1]; LTB0016, 5.00 µM): 2.75 | Growth (%) Exp3 A/100MØ ([1]; LTB0016, 5.00 µM): 29.45 | Growth (%) Exp3 %Control ([1]; LTB0016, 5.00 µM): 16.59% | Average A/100MØ ([1]; LTB0016, 5.00 µM): 24.08 | Growth (%) Exp1 Infección ([1]; LTB0016, 10.00 µM): 5.40% | Growth (%) Exp1 A/MØ ([1]; LTB0016, 10.00 µM): 1.67 | Growth (%) Exp1 A/100MØ ([1]; LTB0016, 10.00 µM): 9.00 | Growth (%) Exp1 %Control ([1]; LTB0016, 10.00 µM): 3.43% | Growth (%) Exp2 Infección ([1]; LTB0016, 10.00 µM): 11.23% | Growth (%) Exp2 A/MØ ([1]; LTB0016, 10.00 µM): 1.20 | Growth (%) Exp2 A/100MØ ([1]; LTB0016, 10.00 µM): 13.48 | Growth (%) Exp2 %Control ([1]; LTB0016, 10.00 µM): 6.34% | Growth (%) Exp3 Infección ([1]; LTB0016, 10.00 µM): 3.48% | Growth (%) Exp3 A/MØ ([1]; LTB0016, 10.00 µM): 3.00 | Growth (%) Exp3 A/100MØ ([1]; LTB0016, 10.00 µM): 10.44 | Growth (%) Exp3 %Control ([1]; LTB0016, 10.00 µM): 5.88% | Average A/100MØ ([1]; LTB0016, 10.00 µM): 10.97 | GI50 ([1]; LTB0016 intracellular amastigotes, GraphPad regression, read-out: GI50 (µM) Experiment 1 Regresion): 0.29 µM | GI50 ([1]; LTB0016 intracellular amastigotes, GraphPad regression, read-out: GI50 (µM) Experiment 2 Regresion): 0.34 µM | GI50 ([1]; LTB0016 intracellular amastigotes, GraphPad regression, read-out: GI50 (µM) Experiment 3 Regresion): 0.2 µM | GI50 ([1]; intracellular amastigotes, Supplementary Materials II, read-out: GI50 (µM) LTB0016, mean of three experiments): 0.278 µM and 0.28 µM | GI50 ([1]; summary bound for reference strain LTB0016 and patient isolates, read-out: GI50): < 1 µM | CC50 [2]: 48100 nM | active concentration in L. (L.) braziliensis [3]: less than 10 µM | GI50 [4]: 22800 nM | inhibition of parasite migration [5]: inhibited parasite migration at nano and picomolar concentrations
